We go through one molecule from patent US20240115547A1, “PSYCHOTROPIC AGENTS AND USES THEREOF” (LB PHARMACEUTICALS INC., priority 2021, published 2024).

Data set [1] has as its system dopamine D2/D3. As to the kind of experiment: D2/D3 RO by dynamic 11C raclopride PET after oral LB-102 in healthy volunteers (Example 1). It is filed as in vivo, human.
Data set [2] can be described thus: Demethylation of LB-102 to amisulpride in preclinical animal models. It is filed as in vivo.
[3] abbreviates: 50 mg LB102 oral, 2.5 h after admin.
Setting [4] is: 50 mg LB102 oral, 7.5 h after admin.
[5] abbreviates: 50 mg LB102 oral, 23.5 h after admin.
The mark [6] stands for this setting: 100 mg LB102 oral, 2.5 h after admin.
[7] abbreviates: 100 mg LB102 oral, 7.5 h after admin.
The mark [8] stands for this setting: 100 mg LB102 oral, 23.5 h after admin.

`CCN1CCCC1CNC(=O)c1cc(S(=O)(=O)CC)c(NC)cc1OC` (stereo not drawn) [LB-102]: the “Caudate % RO” value is recorded as 26% in data set [1] (setting [3]); 43% in data set [1] (setting [4]); 50% in data set [1] (setting [5]); 48% in data set [1] (setting [6]); 77% in data set [1] (setting [7]); 74% in data set [1] (setting [8]). In addition, the “Putamen % RO” value in data set [1] (setting [3]) was 22%; in data set [1] (setting [4]) it was 36%; in data set [1] (setting [5]) it was 39%; in data set [1] (setting [6]) it was 42%; in data set [1] (setting [7]), 71%; in data set [1] (setting [8]) it was 67%. Moreover, the “dopamine D2/D3 RO in caudate/putamen” value in data set [1] (single oral dose of 50 mg, human subjects (FIG. 1A)) is reported as “about 50%”; in data set [1] (single oral dose of 100 mg, human subjects (FIG. 1B)) it was approximately 75%. Besides, the demethylated to amisulpride result in data set [2] was “up to 50%”.
